Where two headings read alike, the source gives them in different places.
Assays:
Format in all cases: cell-based, HCV
[1] = test system: genotype 1a replicon (1a-H77); test: 1a stable replicon (luciferase reporter); details: HuH-7 cells, 5% FBS
[2] = test system: genotype 3a NS3 gene in transient replicon; test: 3a transient replicon (luciferase reporter)
[3] = test system: genotype 1a transient replicon (1a-H77); test: 1a transient replicon (luciferase reporter); details: HuH-7 cells, 5% FBS
[4] = test system: genotype 1b replicon (1b-Con1, 1b-N); test: 1b stable replicon (luciferase reporter); details: HuH-7 cells, 5% FBS
[5] = test system: genotype 1b transient replicon; test: 1b transient replicon (luciferase reporter); details: HuH-7 cells, 5% FBS
[6] = Hepatitis C virus, Huh-7, luciferase reporter
[7] = Hepatitis C virus, Huh-7, read-out: 3a transient replicon (nM)

In the case of `Cc1cc(C(=O)N[C@H]2CCCCC/C=C\[C@@H]3C[C@@]3(C(=O)NS(=O)(=O)C3(C)CC3)NC(=O)[C@@H]3C[C@@H](Oc4nc5cc(F)ccc5c5cc(F)ccc45)CN3C2=O)no1`, the EC50 [1, 6] is reported as 0.1 to 0.5 nM, the EC50 [2, 7] is reported as greater than 1 nM and the EC50 ([3]; Hepatitis C virus) is reported as less than 0.1 nM. For the same compound, the EC50 ([4]; Hepatitis C virus) was 0.1 to 0.5 nM and the EC50 ([5]; Hepatitis C virus) was 0.1 to 0.5 nM.
For `Cc1cc(C(=O)N[C@H]2CCCCC/C=C\[C@@H]3C[C@@]3(C(=O)NS(=O)(=O)C3CC3)NC(=O)[C@@H]3C[C@@H](Oc4nc5ccccc5c5cc(F)ccc45)CN3C2=O)no1`, the EC50 [1, 6] was 0.1 to 0.5 nM, the EC50 [2, 7] was greater than 1 nM and the EC50 ([3]; Hepatitis C virus) was less than 0.1 nM. The EC50 ([4]; Hepatitis C virus) was 0.1 to 0.5 nM and the EC50 ([5]; Hepatitis C virus) was 0.1 to 0.5 nM.
Compound `Cc1ccc(C(=O)N[C@H]2CCCCC/C=C\[C@@H]3C[C@@]3(C(=O)NS(=O)(=O)C3(C)CC3)NC(=O)[C@@H]3C[C@@H](Oc4nc5cc(F)ccc5c5ccccc45)CN3C2=O)o1` has an EC50 [1, 6] of 0.5 to 1 nM, an EC50 [2, 7] of less than 1 nM and an EC50 ([3]; Hepatitis C virus) of 0.1 to 0.5 nM. It also gave an EC50 ([4]; Hepatitis C virus) of 0.1 to 0.5 nM and an EC50 ([5]; Hepatitis C virus) of 0.1 to 0.5 nM.
With `COc1ccc2c(c1)nc(O[C@@H]1C[C@H]3C(=O)N[C@]4(C(=O)NS(=O)(=O)C5(C)CC5)C[C@H]4/C=C\CCCCC[C@H](NC(=O)c4cc(C)on4)C(=O)N3C1)c1ccccc12` the EC50 [1, 6] was 0.1 to 0.5 nM, the EC50 [2, 7] was greater than 1 nM and the EC50 ([3]; Hepatitis C virus) was less than 0.1 nM. It also gave an EC50 ([4]; Hepatitis C virus) of 0.1 to 0.5 nM and an EC50 ([5]; Hepatitis C virus) of 0.1 to 0.5 nM.
`Cc1ccc(C(=O)N[C@H]2CCCCC/C=C\[C@@H]3C[C@@]3(C(=O)NS(=O)(=O)C3(C)CC3)NC(=O)[C@@H]3C[C@@H](Oc4nc5cc(F)ccc5c5ccccc45)CN3C2=O)s1` was tested, and the EC50 [1, 6] was 0.5 to 1 nM, the EC50 [2, 7] was less than 1 nM and the EC50 ([3]; Hepatitis C virus) was 0.1 to 0.5 nM. The EC50 ([4]; Hepatitis C virus) was 0.1 to 0.5 nM and the EC50 ([5]; Hepatitis C virus) was 0.1 to 0.5 nM.
Compound `CC1(S(=O)(=O)NC(=O)[C@@]23C[C@H]2/C=C\CCCCC[C@H](NC(=O)c2ccc(F)s2)C(=O)N2C[C@H](Oc4nc5cc(F)ccc5c5ccccc45)C[C@H]2C(=O)N3)CC1` has an EC50 [1, 6] of 0.5 to 1 nM, an EC50 [2, 7] greater than 1 nM and an EC50 ([3]; Hepatitis C virus) of less than 0.1 nM. It also gave an EC50 ([4]; Hepatitis C virus) of 0.1 to 0.5 nM and an EC50 ([5]; Hepatitis C virus) of 0.1 to 0.5 nM.
Work on `CC1(S(=O)(=O)NC(=O)[C@@]23C[C@H]2/C=C\CCCCC[C@H](NC(=O)c2ccon2)C(=O)N2C[C@H](Oc4nc5cc(F)ccc5c5cc(F)ccc45)C[C@H]2C(=O)N3)CC1` yielded an EC50 [1, 6] of 0.1 to 0.5 nM, an EC50 [2, 7] greater than 1 nM and an EC50 ([3]; Hepatitis C virus) of less than 0.1 nM. For the same compound, the EC50 ([4]; Hepatitis C virus) was 0.1 to 0.5 nM and the EC50 ([5]; Hepatitis C virus) was less than 0.1 nM.
`O=C(N[C@H]1CCCCC/C=C\[C@@H]2C[C@@]2(C(=O)NS(=O)(=O)C2CC2)NC(=O)[C@@H]2C[C@@H](Oc3nc4ccccc4c4cc(F)ccc34)CN2C1=O)c1cncs1` gave an EC50 [1, 6] of 0.5 to 1 nM, an EC50 [2, 7] greater than 1 nM and an EC50 ([3]; Hepatitis C virus) of 0.1 to 0.5 nM. It also gave an EC50 ([4]; Hepatitis C virus) of 0.1 to 0.5 nM and an EC50 ([5]; Hepatitis C virus) of 0.1 to 0.5 nM.
With `COc1ccc2c(c1)nc(O[C@@H]1C[C@H]3C(=O)N[C@]4(C(=O)NS(=O)(=O)C5CC5)C[C@H]4/C=C\CCCCC[C@H](NC(=O)c4ccn(C)n4)C(=O)N3C1)c1ccc(F)cc12` the EC50 [1, 6] was 0.1 to 0.5 nM, the EC50 [2, 7] was 0.5 to 1 nM and the EC50 ([3]; Hepatitis C virus) was 0.1 to 0.5 nM. The EC50 ([4]; Hepatitis C virus) was 0.1 to 0.5 nM and the EC50 ([5]; Hepatitis C virus) was 0.5 to 1 nM.
With `Cn1ccc(C(=O)N[C@H]2CCCCC/C=C\[C@@H]3C[C@@]3(C(=O)NS(=O)(=O)C3(C)CC3)NC(=O)[C@@H]3C[C@@H](Oc4nc5cc(OC(F)(F)F)ccc5c5ccccc45)CN3C2=O)n1` the EC50 [1, 6] was 0.1 to 0.5 nM, the EC50 [2, 7] was 0.1 to 0.5 nM and the EC50 ([3]; Hepatitis C virus) was less than 0.1 nM. The EC50 ([4]; Hepatitis C virus) was less than 0.1 nM and the EC50 ([5]; Hepatitis C virus) was 0.1 to 0.5 nM.
Work on `Cn1ccc(C(=O)N[C@H]2CCCCC/C=C\[C@@H]3C[C@@]3(C(=O)NS(=O)(=O)C3CC3)NC(=O)[C@@H]3C[C@@H](Oc4nc5cc(F)ccc5c5cc(OC(F)(F)F)ccc45)CN3C2=O)n1` yielded an EC50 [1, 6] of 0.5 to 1 nM, an EC50 [2, 7] greater than 1 nM and an EC50 ([3]; Hepatitis C virus) of 0.1 to 0.5 nM. It also gave an EC50 ([4]; Hepatitis C virus) of less than 0.1 nM and an EC50 ([5]; Hepatitis C virus) of 0.1 to 0.5 nM.
In the case of `O=C(N[C@H]1CCCCC/C=C\[C@@H]2C[C@@]2(C(=O)NS(=O)(=O)C2CC2)NC(=O)[C@@H]2C[C@@H](Oc3nc4cc(F)ccc4c4cc(F)ccc34)CN2C1=O)c1cscn1` [drawing 124], the EC50 [1, 6] is reported as 0.5 to 1 nM, the EC50 [2, 7] is reported as greater than 1 nM and the EC50 ([3]; Hepatitis C virus) is reported as 0.1 to 0.5 nM. The EC50 ([4]; Hepatitis C virus) was 0.1 to 0.5 nM and the EC50 ([5]; Hepatitis C virus) was 0.1 to 0.5 nM.
Work on `O=C(N[C@H]1CCCCC/C=C\[C@@H]2C[C@@]2(C(=O)NS(=O)(=O)C2CC2)NC(=O)[C@@H]2C[C@@H](Oc3nc4cc(F)ccc4c4cc(F)ccc34)CN2C1=O)c1cscn1` [drawing 125] yielded an EC50 ([1]; luciferase reporter) greater than 1 nM, an EC50 ([2]; read-out: 3a transient replicon, luciferase reporter, HuH-7 cells, 5% FBS) greater than 1 nM and an EC50 [3] of 0.1 to 0.5 nM. The EC50 [4] was 0.1 to 0.5 nM and the EC50 [5] was 0.1 to 0.5 nM.
